This test concerns the target T1, indoleamine 2,3-dioxygenase (IDO) (Homo sapiens, UniProt P14902).
T1 construct: replaced with media containing IFNγ (#285-IF/CF, R&D Systems) at a final concentration of 25 ng/mL; endogenous in cells; host or cells: HeLa (ATCC CCL-2), IFN-gamma stimulated
The test is described as follows: HeLa cell-based indoleamine 2,3-dioxygenase (IDO) assay, kynurenine production. The settings on record: HeLa cells, IFNγ 25 ng/mL, 48 hour incubation. Here is the method: Assessment of Inhibitor Activity in HeLa Cell-Based Indoleamine 23-Dioxygenase (IDO) Assay
Cells were maintained in a humidified incubator at 37° C. in 5% CO2.
IDO activity was assessed as a function of kynurenine production as follows: HeLa cells were seeded in a 96-well culture plate at a density of 5,000 cells/well and allowed to equilibrate overnight. […] A serial dilution of each test compound was added to the cells in a total volume of 200 μL of culture medium. After a further 48 hour incubation, 170 μL of supernatant was transferred from each well to a fresh 96-well plate. 12.1 μL of 6.1N trichloroacetic acid (#T0699, Sigma-Aldrich) was added to each well and mixed, followed by incubation at 65° C. for 20 minutes to hydrolyze N-formylkynurenine, the product of indoleamine 2,3-dioxygenase, to kynurenine. The reaction mixture was then centrifuged for 10 mins at 500×g to sediment the precipitate. 100 μL of the supernatant was transferred from each well to a fresh 96-well plate. […] Kynurenine concentrations were determined by measuring absorbance at 480 nm and calibrating against an L-kynurenine (#K8625, Sigma-Aldrich) standard curve using a SPECTRAMAX® M2e microplate reader (Molecular Devices). The percentage activity at each inhibitor concentration was determined and IC50 values assessed using nonlinear regression.

The mark [1] stands for this setting: read-out: IDO Hela IC50 class (A < 50, B < 250, C < 2000).

What is called IC50 is the midpoint of a concentration-inhibition curve.

Each structure is given as a SMILES string. Like-named read-outs stand apart in the source and are kept apart here. Where only a bound is given, the exact number is not on record here.

T1 sequence (P14902 whole entry): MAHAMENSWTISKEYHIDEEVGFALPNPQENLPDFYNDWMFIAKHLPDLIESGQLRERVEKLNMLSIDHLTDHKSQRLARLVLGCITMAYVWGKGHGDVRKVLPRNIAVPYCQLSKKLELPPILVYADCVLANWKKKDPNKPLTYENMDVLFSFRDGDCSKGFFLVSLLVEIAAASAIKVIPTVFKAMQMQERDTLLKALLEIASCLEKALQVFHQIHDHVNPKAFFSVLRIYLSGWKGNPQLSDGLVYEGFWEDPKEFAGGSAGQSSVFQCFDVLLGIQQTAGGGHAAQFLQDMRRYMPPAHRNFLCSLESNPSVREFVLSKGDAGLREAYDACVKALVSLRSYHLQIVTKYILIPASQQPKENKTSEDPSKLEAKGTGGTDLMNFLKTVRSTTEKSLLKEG

For `CC[C@@H](CC(=O)O)c1ccc([C@@H](CC)N2CCOCC2)c(Nc2cnc(C(F)(F)F)nc2)c1` (relative stereo) [Example 130, (S)-3-(4-((R)-1-morpholinopropyl)-3-((2-(trifluoromethyl)pyrimidin-5-yl)amino)phenyl)pentanoic acid], the IC50 (read-out: IDO Hela IC50) was 90 nM.
With `CCO[C@H](c1ccc([C@H](CC)CC(=O)O)cc1Nc1ccc(C#N)cc1)C(F)(F)F` (single isomer, unassigned) [Example 15], the IC50 under setting [1] was below 50 nM.
Turning to `CCO[C@H](c1ccc([C@H](CC)CC(=O)O)cc1Nc1cnc(CC)nc1)C(F)(F)F` (relative stereo) [Example 18, (R)-3-(4-((R)-1-ethoxy-2,2,2-trifluoroethyl)-3-((2-ethylpyrimidin-5-yl)amino)phenyl)pentanoic acid], under “read-out: IDO Hela IC50”, the IC50 came out at 40 nM.
As to `CCOc1ncc(Nc2cc([C@H](CC)CC(=O)O)ccc2[C@H](CC)C2CCOCC2)cn1` (single isomer, unassigned) [Example 125-2], the IC50 under setting [1] was below 50 nM.
Turning to `CC[C@@H](CC(=O)O)c1ccc([C@@H](CC)N2CCOCC2)c(Nc2ccc(COC)nc2)c1` (relative stereo) [Example 131, (S)-3-(3-((6-(methoxymethyl)pyridin-3-yl)amino)-4-((R)-1-morpholinopropyl)phenyl)pentanoic acid], the IC50 under setting [1] was in the range of 250 to 2000 nM.
As to `CC[C@@H](c1ccc([C@@H](COC)CC(=O)O)cc1Nc1ccc(F)cc1)N1CCOCC1` (single isomer, unassigned) [Example 106], the IC50 (read-out: IDO Hela IC50) was 10 nM.
In the case of `CC[C@H](CC(=O)O)c1ccc([C@H](OC)C(F)(F)F)c(Nc2ccc(Cl)cc2)c1` (single isomer, unassigned) [Example 84-1], the IC50 under setting [1] was below 50 nM.
The same measure, in the same setting: in the case of `CC[C@@H](c1ccc([C@@H](COC)CC(=O)O)cc1Nc1ccc(COC)nc1)N1CCOCC1` (single isomer, unassigned) [Example 104] it was 250 to 2000 nM.
`CCOc1ncc(Nc2cc([C@@H](CC)CC(=O)O)ccc2[C@H](CC)N2CCOCC2)cn1` (single isomer, unassigned) [Example 118-4]: the IC50 (read-out: IDO Hela IC50) is 10 nM.
With `CC[C@@H](CC(=O)O)c1ccc([C@@H](CC)N2CCOCC2)c(Nc2ccc(OC(F)F)cn2)c1` (relative stereo) [Example 133, (S)-3-(3-((5-(difluoromethoxy)pyridin-2-yl)amino)-4-((R)-1-morpholinopropyl)phenyl)pentanoic acid], the IC50 under setting [1] was 250 to 2000 nM.
For the compound `CCOc1ncc(Nc2cc([C@H](CC)CC(=O)O)ccc2[C@@H](CC)C2CCOCC2)cn1` (single isomer, unassigned) [Example 125-1], the IC50 (read-out: IDO Hela IC50) was found to be 40 nM.
For the compound `CCOc1ncc(Nc2cc([C@@H](CC)CC(=O)O)ccc2[C@@H](OCC)C(F)(F)F)cn1` (relative stereo) [Example 24, (S)-3-(4-((R)-1-ethoxy-2,2,2-trifluoroethyl)-3-((2-ethoxypyrimidin-5-yl)amino)phenyl)pentanoic acid], the 50% inhibitory concentration (IC50) (read-out: IDO Hela IC50) worked out at 10 nM.
As for `CCO[C@@H](c1ccc([C@@H](COC)CC(=O)O)cc1Nc1ccc(C#N)cc1)C(F)(F)F` (single isomer, unassigned) [Example 80], the 50% inhibitory concentration (IC50) under setting [1] was below 50 nM.
Turning to `CCO[C@H](c1ccc([C@@H](COC)CC(=O)O)cc1NC(=O)Nc1ccc(Cl)cc1F)C(F)(F)F` (single isomer, unassigned) [Example 61], the IC50 (read-out: IDO Hela IC50) was determined as 190 nM.
Consider `CC[C@@H](c1ccc([C@@H](COC)CC(=O)O)cc1Nc1ccc(Cl)cc1)N1CCOCC1` (relative stereo) [Example 105, (S)-3-(3-((4-chlorophenyl)amino)-4-((S)-1-morpholinopropyl)phenyl)-4-methoxybutanoic acid], for which the IC50 under setting [1] was below 50 nM.
With `CCO[C@H](c1ccc([C@@H](COC)CC(=O)O)cc1Nc1ccc(Cl)cc1)C(F)(F)F` (single isomer, unassigned) [Example 66], the IC50 under setting [1] is below 50 nM.
For the compound `CCO[C@@H](c1ccc([C@H](COC)CC(=O)O)cc1Nc1ccc(Cl)cc1)C(F)(F)F` (single isomer, unassigned) [Example 72], the IC50 (read-out: IDO Hela IC50) worked out at 10 nM.
Still for that read-out and setting: with `CC[C@H](CC(=O)O)c1ccc([C@@H](CC)N2CCOCC2)c(Nc2cnc(C)nc2)c1` (relative stereo) [Example 120, (R)-3-(3-((2-methylpyrimidin-5-yl)amino)-4-((R)-1-morpholinopropyl)phenyl)pentanoic acid] the figure was 80 nM.
For the compound `CCO[C@@H](c1ccc([C@@H](CC)CC(=O)O)cc1NC(=O)Nc1ccc(C)cc1)C(F)(F)F` (single isomer, unassigned) [Example 41], for the setting “read-out: IDO Hela IC50”, the IC50 came out at 20 nM.
Still for that read-out and setting: in the case of `CCO[C@H](c1ccc([C@@H](CC)CC(=O)O)cc1NC(=O)Nc1ccc(C)cc1)C(F)(F)F` (single isomer, unassigned) [Example 19] it was 580 nM; in that of `CCO[C@H](c1ccc([C@@H](CC)CC(=O)O)cc1Nc1cnc(CC)nc1)C(F)(F)F` (single isomer, unassigned) [Example 29], 20 nM.
Take `CC[C@H](CC(=O)O)c1ccc([C@@H](CC)N2CCOCC2)c(Nc2ccc(Cl)cc2)c1` (relative stereo) [Example 123, (R)-3-(3-((4-chlorophenyl)amino)-4-((R)-1-morpholinopropyl)phenyl)pentanoic acid]: the IC50 under setting [1] is below 50 nM.
For the compound `CC[C@H](c1ccc([C@@H](COC)CC(=O)O)cc1Nc1ccc(Cl)cc1)N1CCOCC1` (relative stereo) [Example 110, (S)-3-(3-((4-chlorophenyl)amino)-4-((R)-1-morpholinopropyl)phenyl)-4-methoxybutanoic acid], the IC50 reads like this: (read-out: IDO Hela IC50) 380 nM; under setting [1], 50 to 250 nM.
`CC[C@@H](CC(=O)O)c1ccc([C@H](OC)C(F)(F)F)c(Nc2ccc(Cl)cc2)c1` (single isomer, unassigned) [Example 84-2]: under setting [1], the IC50 is below 50 nM.
As to `CCO[C@H](c1ccc([C@H](CC)CC(=O)O)cc1Nc1cnc(OC)cn1)C(F)(F)F` (single isomer, unassigned) [Example 14], the IC50 (read-out: IDO Hela IC50) was 10 nM.
Consider `CCO[C@H](c1ccc([C@H](COC)CC(=O)O)cc1Nc1ccc(Cl)cc1)C(F)(F)F` (single isomer, unassigned) [Example 58], for which, where the note is “read-out: IDO Hela IC50”, the IC50 came to 20 nM.
Same read-out and setting: in the case of `CCO[C@@H](c1ccc([C@H](CC)CC(=O)O)cc1Nc1cnc(CC)nc1)C(F)(F)F` (single isomer, unassigned) [Example 40] it was 20 nM; in that of `CC[C@@H](CC(=O)O)c1ccc([C@@H](CC)N2CCOCC2)c(Nc2ccc(C#N)cc2)c1` (single isomer, unassigned) [Example 124], 70 nM.
Same read-out and setting: in the case of `CCO[C@@H](c1ccc([C@H](CC)CC(=O)O)cc1NC(=O)Nc1ccc(C)cc1)C(F)(F)F` (single isomer, unassigned) [Example 31] it was 20 nM.
Same read-out and setting: with `CCO[C@H](c1ccc([C@H](CC)CC(=O)O)cc1Nc1cnc(OC)nc1)C(F)(F)F` (single isomer, unassigned) [Example 10] the figure was 20 nM.
With `CCO[C@@H](c1ccc([C@H](COC)CC(=O)O)cc1Nc1ccc(C#N)cc1)C(F)(F)F` (relative stereo) [Example 73, (R)-3-(3-((4-cyanophenyl)amino)-4-((S)-1-ethoxy-2,2,2-trifluoroethyl)phenyl)-4-methoxybutanoic acid], the IC50 (read-out: IDO Hela IC50) was 10 nM.
The same measure, in the same setting: with `CC[C@H](CC(=O)O)c1ccc([C@@H](CC)N2CCOCC2)c(Nc2ccc(COC)nc2)c1` (relative stereo) [Example 121, (R)-3-(3-((6-(methoxymethyl)pyridin-3-yl)amino)-4-((R)-1-morpholinopropyl)phenyl)pentanoic acid] the figure was 30 nM; with `CCO[C@@H](c1ccc([C@@H](CC)CC(=O)O)cc1Nc1cnc(OC)nc1)C(F)(F)F` (single isomer, unassigned) [Example 43], 10 nM.
Take `CCO[C@@H](c1ccc([C@H](COC)CC(=O)O)cc1Nc1ncc(F)cn1)C(F)(F)F` (single isomer, unassigned) [Example 71]: the half-inhibitory concentration (IC50) under setting [1] lay within 250 to 2000 nM.
As to `CCO[C@H](c1ccc([C@H](COC)CC(=O)O)cc1Nc1ccc(C#N)c(F)c1)C(F)(F)F` (single isomer, unassigned) [Example 55], for the setting “read-out: IDO Hela IC50”, the concentration for half-maximal inhibition (IC50) stood at 10 nM.
For the compound `CCO[C@H](c1ccc([C@@H](COC)CC(=O)O)cc1NC(=O)Nc1ccc(C)cc1)C(F)(F)F` (single isomer, unassigned) [Example 60], the IC50 (read-out: IDO Hela IC50) came to 910 nM.
On to `CCO[C@H](c1ccc([C@@H](COC)CC(=O)O)cc1Nc1ncc(F)cn1)C(F)(F)F` (relative stereo) [Example 64, (S)-3-(4-((R)-1-ethoxy-2,2,2-trifluoroethyl)-3-((5-fluoropyrimidin-2-yl)amino)phenyl)-4-methoxybutanoic acid], for which, under setting [1], the IC50 was 250 to 2000 nM.
Regarding `CCO[C@@H](c1ccc([C@H](CC)CC(=O)O)cc1Nc1cnc(OC)cn1)C(F)(F)F` (relative stereo) [Example 36, (R)-3-(4-((S)-1-ethoxy-2,2,2-trifluoroethyl)-3-((5-methoxypyrazin-2-yl)amino)phenyl)pentanoic acid], for the setting “read-out: IDO Hela IC50”, the IC50 was determined as 30 nM.

These data come from patent US11253525B2, “Inhibitors of indoleamine 2,3-dioxygenase and methods of their use” (BRISTOL-MYERS SQUIBB COMPANY, priority 2018, dated 2022).
